The inhibition is the share of the control response that was lost under treatment.

The source of these data is patent US9884832B2 (priority 2011, dated 2018).

Molecules are shown by their SMILES.

For the first test, the target named is AM2 S31 (wild-type serine at position 31 in the M2 protein), influenza virus A/Udorn/72 (Influenza A virus, UniProt P0DOF5). Briefly: cell-based. The settings on record: 100 uM; Xenopus oocytes; activity range class; read-out: S31 OOcyte Inhibition at 100 uM (%).
Chain of AM2 S31 (wild-type serine at position 31 in the M2 protein), influenza virus A/Udorn/72 (P0DOF5 whole entry, looked up): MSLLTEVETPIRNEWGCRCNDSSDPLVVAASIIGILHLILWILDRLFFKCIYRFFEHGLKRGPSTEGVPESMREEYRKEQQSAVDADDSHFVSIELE
Regarding `COc1cc(Cl)sc1CNC12CC3CC(CC(C3)C1)C2` [Example 80a], the inhibition at 100 µM fell in the range of 31 to 95%.
The same measure, in the same setting: in the case of `Brc1cnc(CNC23CC4CC(CC(C4)C2)C3)[nH]1` [Example 89a, Adamantan-1-yl-(5-bromo-1H-imidazol-2-ylmethyl)-amine] it was 31 to 95%; in that of `COc1ccc2cc(CNC34CC5CC(CC(C5)C3)C4)ccc2c1` [Example 40a, Adamantan-1-yl-(6-methoxy-naphthalen-2-ylmethyl)-amine], 0 to 30%; in that of `Clc1ccc(/C=C/CNC23CC4CC(CC(C4)C2)C3)cc1` [Example 200a, N-((E)-3-(4-chlorophenyl)allyl)adamantan-1-amine], 0 to 30%.
With `c1coc(-c2nc(CNC34CC5CC(CC(C5)C3)C4)no2)c1` [Example 160a, N-((5-(furan-2-yl)-1,2,4-oxadiazol-3-yl)methyl)adamantan-1-amine], the inhibition at 100 µM fell in the range of 0 to 30%.
As to `Brc1ccc(CNC23CC4CC(CC(C4)C2)C3)o1` [Example 87a, Adamantan-1-yl-(5-bromo-furan-2-ylmethyl)-amine], the inhibition at 100 µM is 31 to 95%.
In the case of `c1csc(-c2cc(CNC34CC5CC(CC(C5)C3)C4)on2)c1` [Example 149a, N-((3-(thiophen-2-yl)isoxazol-5-yl)methyl)adamantan-1-amine], the inhibition at 100 µM was 0 to 30%.
Still for that read-out and setting: in the case of `FC(F)(F)c1ccc(CNC23CC4CC(CC(C4)C2)C3)cc1` [Example 5a, Adamantan-1-yl-(4-trifluoromethyl-benzyl)-amine] it was 0 to 30%; in that of `c1cc(-c2ccc(CNC34CC5CC(CC(C5)C3)C4)s2)co1` [Example 137a, N-((5-(Furan-3-yl)thiophen-2-yl)methyl)adamantan-1-amine], 0 to 30%; in that of `CC(C)(C)c1cc(CNC23CC4CC(CC(C4)C2)C3)[nH]n1` [Example 101a, N-((3-(tert-butyl)-1H-pyrazol-5-yl)methyl)adamantan-1-amine], 0 to 30%.
`c1cc(C2CCCCC2)ccc1CNC12CC3CC(CC(C3)C1)C2` [Example 10a, Adamantan-1-yl-(4-cyclohexyl-benzyl)-amine]: the inhibition at 100 µM lay in the range of 0 to 30%.
For `c1c[nH]c(CNC23CC4CC(CC(C4)C2)C3)c1` [Example 72a, Adamantan-1-yl-(1H-pyrrol-2-ylmethyl)-amine], the inhibition at 100 µM was 31 to 95%.
Still for that read-out and setting: in the case of `Brc1ccc(-c2ccc(CNC34CC5CC(CC(C5)C3)C4)s2)s1` [Example 159a, N-((5′-bromo-[2,2′-bithiophen]-5-yl)methyl)adamantan-1-amine] it was 0 to 30%.
Consider `CC(C)n1cc(CNC23CC4CC(CC(C4)C2)C3)cn1` [Example 85a, N-((1-isopropyl-1H-pyrazol-4-yl)methyl)adamantan-1-amine], for which the inhibition at 100 µM fell in the range of 0 to 30%.
Take `c1csc(-c2ccc(-c3ccc(CNC45CC6CC(CC(C6)C4)C5)s3)s2)c1` [Example 157a, N-([2,2′:5′,2″-terthiophen]-5-ylmethyl)adamantan-1-amine]: the inhibition at 100 µM was in the range of 0 to 30%.
Turning to `C1CCC(c2nc(CNC34CC5CC(CC(C5)C3)C4)no2)C1` [Example 109a, N-((5-cyclopentyl-1,2,4-oxadiazol-3-yl)methyl)adamantan-1-amine], the inhibition at 100 µM lay within 0 to 30%.
For the compound `c1csc(CNC23CC4CC(CC(C4)C2)C3)n1` [Example 71a, Adamantan-1-yl-thiazol-2-ylmethyl-amine], the inhibition at 100 µM fell in the range of 31 to 95%.
Still for that read-out and setting: in the case of `c1csc(-c2ccc(CNC34CC5CC(CC(C5)C3)C4)nc2)c1` [Example 55a, Adamantan-1-yl-(5-thiophen-2-yl-pyridin-2-ylmethyl)-amine] it was 31 to 95%.
Same read-out and setting: the figure for `COc1ccc2cc(CNC34CC5CC(CC(C5)C3)C4)sc2c1` [Example 185a, N-((6-methoxybenzo[b]thiophen-2-yl)methyl)adamantan-1-amine] is 0 to 30%.
Same read-out and setting: in the case of `COc1cccc(COc2ccc(CNC34CC5CC(CC(C5)C3)C4)cc2)c1` [Example 14a, Adamantan-1-yl-[4-(3-methoxy-benzyloxy)-benzyl]-amine] it was 0 to 30%; in that of `c1ccc(C2=NOC(CNC34CC5CC(CC(C5)C3)C4)C2)cc1` (stereo not drawn) [Example 167a, N-((3-phenyl-4,5-dihydroisoxazol-5-yl)methyl)adamantan-1-amine], 0 to 30%; in that of `c1cc(-c2csc(CNC34CC5CC(CC(C5)C3)C4)c2)cs1` [Example 152a, N-([3,3′-bithiophen]-5-ylmethyl)adamantan-1-amine], 0 to 30%.
Consider `C[Si](C)(C)c1ccc(CNC23CC4CC(CC(C4)C2)C3)cc1` [Example 6a, Adamantan-1-yl-(4-trimethylsilanyl-benzyl)-amine], for which the inhibition at 100 µM fell in the range of 0 to 30%.
`c1csc(-c2cc(CNC34CC5CC(CC(C5)C3)C4)no2)c1` [Example 142a, N-((5-(thiophen-2-yl)isoxazol-3-yl)methyl)adamantan-1-amine]: the inhibition at 100 µM lay in the range of 0 to 30%.

The test is the same for the next values; noted with them: Table 1; 100 uM; Xenopus oocytes, pH 5.5, -20 mV; read-out: S31 OOcyte Inhibition at 100 uM (%).
Regarding `c1csc(-c2ccc(CNC34CC5CC(CC(C5)C3)C4)cc2)c1` [Example 44, N-(4-(Thiophen-2-yl)benzyl)adamantan-1-amine], the inhibition at 100 µM fell in the range of 0 to 30%.
The same measure, in the same setting: in the case of `c1cc(-c2ccc(CNC34CC5CC(CC(C5)C3)C4)cc2)co1` [Example 42, N-(4-(Furan-3-yl)benzyl)adamantan-1-amine] it was 0 to 30%.
The same measure, in the same setting: the figure for `CC1(C)C2CCC(CNCc3ccc(O)cc3O)C1C2` (stereo not drawn) [Example 114, 4-{[(6,6-Dimethyl-bicyclo[3.1.1]hept-2-ylmethyl)-amino]methyl}-benzene-1,3-diol] is 31 to 95%; for `Nc1ccc(CNC23CC4CC(CC(C4)C2)C3)cc1` [Example 11, Adamantan-1-yl-(4-amino-benzyl)-amine] it is 31 to 95%; for `CC(C)(C)OC(=O)Nc1ccc(CNC23CC4CC(CC(C4)C2)C3)cc1` [Example 12, [4-(Adamantan-1-ylaminomethyl)-phenyl]carbamic acid tert-butyl ester] it is 0 to 30%.
As to `c1ccc2nc(CNC34CC5CC(CC(C5)C3)C4)ccc2c1` [Example 98, Adamantan-1-yl-quinolin-2-ylmethyl-amine], the inhibition at 100 µM was 31 to 95%.
`Fc1ccc(CNC23CC4CC(CC(C4)C2)C3)cc1` [Example 27, Adamantan-1-yl-(4-fluoro-benzyl)-amine]: the inhibition at 100 µM lay within 31 to 95%.
On the same count and under the same terms, the figure for `CN(CCC#N)c1ccc(CNC23CC4CC(CC(C4)C2)C3)cc1` [Example 38, 3-((4-((Adamantan-1-ylamino)methyl)phenyl)(methyl)amino)propanenitrile] is 0 to 30%; for `N=C(Nc1ccc(O)cc1)C12CC3CC(CC(C3)C1)C2` [Example 5] it is 31 to 95%.
On the same count and under the same terms, the figure for `COc1ccc(CNC23CC4CC(CC(C4)C2)C3)cc1O` [Example 61, 5-(Adamantan-1-ylaminomethyl)-2-methoxy-phenol] is 31 to 95%; for `c1cc(CNC23CC4CC(CC(C4)C2)C3)ccn1` [Example 73, Adamantan-1-yl-pyridin-4-ylmethyl-amine] it is 31 to 95%; for `C[Si](C)(C)CCCNCc1ccc(O)cc1O` [Example 113, 4-[(3-Trimethylsilanyl-propylamino)-methyl]-benzene-1,3-diol] it is 31 to 95%.
Turning to `c1nc(-c2ccc(CNC34CC5CC(CC(C5)C3)C4)cc2)no1` [Example 40, Adamantan-1-yl-(4-[1,2,4]oxadiazol-3-yl-benzyl)-amine], the inhibition at 100 µM is 0 to 30%.
Still for that read-out and setting: in the case of `Clc1c(CNC23CC4CC(CC(C4)C2)C3)nc2sccn12` [Example 87, Adamantan-1-yl-(5-chloro-imidazo[2,1-b]thiazol-6-ylmethyl)-amine] it was 0 to 30%.

The same test, now with this note: Table 3; 100 uM; Xenopus oocytes, pH 5.5, -20 mV; read-out: S31 OOcyte Inhibition at 100 uM (%).
In the case of `CN(C)c1ncc(CNC23CC4CC(CC(C4)C2)C3)cn1` [Example 59b, N-((2-dimethylaminopyrimidin-5-yl)methyl)adamantan-1-amine], the inhibition at 100 µM fell in the range of 0 to 30%.
Still for that read-out and setting: in the case of `CC(C)(C)c1ncc(CNC23CC4CC(CC(C4)C2)C3)s1` [Example 20b, N-((2-(tert-butyl)thiazol-5-yl)methyl)adamantan-1-amine] it was 0 to 30%.
In the case of `CC(C)(C)c1ccc(-c2ccc(CNC34CC5CC(CC(C5)C3)C4)s2)cc1` [Example 50b, N-((5-(4-(tert-Butyl)phenyl)thiophen-2-yl)methyl)adamantan-1-amine], the inhibition at 100 µM is 0 to 30%.
Same read-out and setting: the figure for `CCOC(=O)CN(C)c1ncc(CNC23CC4CC(CC(C4)C2)C3)cn1` [Example 60b, N-((2-methyl(ethylcarboxymethyl)aminopyrimidin-5-yl)methyl)adamantan-1-amine] is 0 to 30%.
With `c1nc(N2CCCCC2)ncc1CNC12CC3CC(CC(C3)C1)C2` [Example 58b, N-((2-(piperidin-1-yl)pyrimidin-5-yl)methyl)adamantan-1-amine], the inhibition at 100 µM lay in the range of 0 to 30%.
Regarding `CC(C)Cc1nc(CNC23CC4CC(CC(C4)C2)C3)no1` [Example 22b, N-((5-isobutyl-1,2,4-oxadiazol-3-yl)methyl)adamantan-1-amine], the inhibition at 100 µM lay in the range of 0 to 30%.
The same measure, in the same setting: the figure for `Oc1cc(I)ccc1CNC12CC3CC(CC(C3)C1)C2` [Example 2b] is 31 to 95%; for `C[Si](C)(C)c1ccc(CNC23CC4CC(CC(C4)C2)C3)s1` [Example 75b, Adamantan-1-yl-(5-trimethylsilanyl-thiophen-2-ylmethyl)-amine] it is 0 to 30%; for `Cc1csc(-c2ccc(CNC34CC5CC(CC(C5)C3)C4)cc2)c1` [Example 5b, N-(4-(4-Methylthiophen-2-yl)benzyl)adamantan-1-amine] it is 0 to 30%.
The same measure, in the same setting: the figure for `OC12CC3CC(C1)CC(NCc1noc(-c4ccccc4)n1)(C3)C2` [Example 84b, (1s,3r,5R,7S)-3-(((5-phenyl-1,2,4-oxadiazol-3-yl)methyl)amino)adamantan-1-61] is 0 to 30%.
